Measured values taken from publication PMC8655235 (Journal of Advanced Research, 2020).

Molecular target: T1, mitochondrial complex I (NADH dehydrogenase) of mites (Psoroptes ovis, UniProt A0A075XDS2)
T1 sequence (A0A075XDS2 1-300): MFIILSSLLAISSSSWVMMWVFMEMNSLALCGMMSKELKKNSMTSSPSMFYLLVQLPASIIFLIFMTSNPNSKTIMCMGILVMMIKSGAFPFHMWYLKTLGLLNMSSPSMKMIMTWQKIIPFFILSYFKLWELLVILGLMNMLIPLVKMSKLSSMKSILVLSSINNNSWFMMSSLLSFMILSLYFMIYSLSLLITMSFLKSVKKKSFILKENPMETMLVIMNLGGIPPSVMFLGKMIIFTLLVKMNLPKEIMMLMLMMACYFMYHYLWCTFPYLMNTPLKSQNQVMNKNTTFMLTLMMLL
Test: colorimetric complex I assay at […] nm, isolated mite mitochondria
Type: biochemical
Conditions: read-out: % inhibition at 20 ng/mL

Structure (SMILES): C=CCc1ccc(O)c(OC)c1 [eugenol, 4-allyl-2-methoxyphenol]
- inhibition at 0.02 µg/mL: 92.6%
